In PubChem BioAssay AID1645865 (Buhrlage Lab, Dana-Farber Cancer Institute and Novartis …, 2021):
Activity calls are given as the source filed them.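 How the source made its calls: active means maximal inhibition of the USP30 enzyme reaching 30% or more across the dose series; inactive means the rest.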

What follows are molecules tested against Ubiquitin carboxyl-terminal hydrolase 30 (Homo sapiens) (UniProt Q70CQ3) (assay: inhibitors of ubiquitin-specific protease 30 deubiquitylating enzyme, concentration dependence, in vitro biochemical, validation of primary hits (AID 1645865)). Conditions: purified USP30, Ub-rhodamine cleavage, fluorescence, 2 h.
Chain of Ubiquitin carboxyl-terminal hydrolase 30 (Homo sapiens) (Q70CQ3 whole entry, looked up): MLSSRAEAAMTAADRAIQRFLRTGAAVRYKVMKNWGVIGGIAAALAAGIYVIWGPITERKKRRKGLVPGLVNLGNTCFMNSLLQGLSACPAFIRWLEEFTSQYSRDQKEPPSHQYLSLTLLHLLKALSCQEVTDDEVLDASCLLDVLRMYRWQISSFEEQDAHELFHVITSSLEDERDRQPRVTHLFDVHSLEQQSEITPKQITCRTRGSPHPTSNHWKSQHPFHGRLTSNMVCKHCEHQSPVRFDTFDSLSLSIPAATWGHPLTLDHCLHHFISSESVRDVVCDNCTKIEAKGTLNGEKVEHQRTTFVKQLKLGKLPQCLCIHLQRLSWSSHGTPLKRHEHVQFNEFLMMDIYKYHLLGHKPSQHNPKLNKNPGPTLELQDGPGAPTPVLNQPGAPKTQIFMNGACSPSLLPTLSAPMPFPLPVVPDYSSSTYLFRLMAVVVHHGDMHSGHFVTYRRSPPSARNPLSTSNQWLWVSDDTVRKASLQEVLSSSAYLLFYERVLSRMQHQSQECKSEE

Row | Structure (SMILES) | IC50
1 | CC1=C(c2ccc(F)cc2)S(=O)(=O)NC1=NCC(=O)Nc1cccc(F)c1 | 19.8 µM
2 | CCC(=O)Nc1ccc(-c2nc(Cn3cc(C)cn3)c(C)o2)cc1 | > 50 µM (inactive)
3 | NS(=O)(=O)c1ccc(Cl)c(C(=O)OCc2csc(Nc3ccccc3)n2)c1 | > 50 µM (inactive)
4 | CCCCc1nc2sc3c(NCCN4CCOCC4)ncnc3c2c2c1CCC2 | > 50 µM (inactive)
5 | O=C(CSc1nnc(Cn2cnc3ccccc32)o1)Nc1ccc([N+](=O)[O-])cc1 | 19.3 µM
6 | Cc1ncc(CO)c2c1Oc1nc(-c3cccc(Cl)c3)nc(SCC(=O)N3CCCCC3)c1C2 | > 50 µM (inactive)
7 | CCC(C)c1ccc(O[C@@H]2O[C@@H]3COC(c4ccccc4)O[C@H]3[C@H](O)[C@H]2NC(C)=O)cc1 (stereo not given in full) | 18.5 µM
8 | O=C(/C=C/C=C/C=C/C1CCCCC1)NC1=C[C@@](O)(/C=C/C=C/C=C/C(=O)NC2=C(O)CCC2=O)[C@@H]2O[C@@H]2C1=O | > 50 µM (inactive)
9 | Cn1cc(-c2cnc(-c3cccc(F)c3)nc2)cc1C(=O)NCc1cccnc1 | 30.7 µM
10 | Cc1ccc(C)c(S(=O)(=O)N2CCN(c3ccc4nnc(-c5ccco5)n4n3)CC2)c1 | > 50 µM (inactive)
11 | CCOc1ccc(NC(=O)COc2cccc(-n3cnnn3)c2)cc1 | > 50 µM (inactive)
12 | Cc1ccc2c(=O)c3c([nH]c2c1C)CCN(CC(=O)NCc1ccc2c(c1)OCO2)C3 | > 50 µM (inactive)
13 | COc1ccc(C(=O)Nc2cc(-c3ccccn3)no2)cn1 | > 50 µM (inactive)
14 | Cc1ccccc1C(=O)c1ccc(C(=O)NC2CCCCCC2)[nH]1 | 2.41 µM
15 | Nc1ccc(F)c(NS(=O)(=O)c2ccccc2)c1 | > 50 µM (inactive)
16 | Cc1ccc(C(=O)Nc2cc3c4c(c2)CC(=O)N4CCC3)cc1C | > 50 µM (inactive)
17 | CC[C@H](C)C[C@H]1CC[C@](O)([C@](C)(O)C(=O)N[C@@H]2C(=O)N3NCCC[C@@H]3C(=O)N(O)[C@@H](C)C(=O)NCC(=O)N3NCCC[C@H]3C(=O)N(O)[C@H](C)C(=O)O[C@H]2C(C)C)O[C@@H]1C | 2.09 µM
18 | O=C(Cn1c(=O)n(Cc2ccccc2)c(=O)c2ncccc21)NCc1ccccc1Cl | > 50 µM (inactive)
19 | c1cnc(-c2n[nH]c(C3CCN(C4CCNC4)CC3)n2)cn1 (stereo not given) | > 50 µM (inactive)
20 | CCn1cnc2ccc(C(=O)NC3CC3)cc2c1=O | > 50 µM (inactive)

Row | Structure (SMILES) | IC50
21 | Cc1ccc(C(=O)NCc2ccc(C(=O)Nc3ccc(C)c(C)c3)o2)cc1 | 21.4 µM
22 | O=C(CNc1ccc(F)c(Cl)c1)Nc1ccc2c(c1)OCCO2 | > 50 µM (inactive)
23 | O=C(/C=C/c1ccc(F)cc1)N1CCC(Cc2ccccc2)CC1 | 41.9 µM
24 | Cc1cc(NC(=O)c2nnn(-c3ccccc3Cl)c2C)no1 | > 50 µM (inactive)
25 | Cc1sc2nc(CN3CCCC3)nc(NCCc3ccc(Cl)cc3)c2c1C | > 50 µM (inactive)
26 | Cc1cc(C)cc(-n2ccnc(SCC(=O)Nc3cccc(Cl)c3)c2=O)c1 | 7.47 µM
27 | CCc1ccc(NC(=O)Cc2nnc(-c3ccc4ncccc4c3)o2)cc1 | 28.4 µM
28 | O=C(Cc1nnc2c(-c3nc(C4CC4)no3)cccn12)Nc1ccccc1 | 26.8 µM
29 | CCN(CC)C(=O)c1sc(NC(=O)/C=C/c2c(F)cccc2Cl)c(C#N)c1C | 1.89 µM
30 | Cc1ccc(-c2nc(NC(=O)Nc3ccc(Cl)cc3)sc2C)cc1 | 5.88 µM
31 | CN(C)Cc1ccc(C(=O)Nc2ccc(-c3nccs3)cc2)cc1 | > 50 µM (inactive)
32 | CN(C)S(=O)(=O)N1CCCC2(C1)Nc1cccnc1NC2=NC1CCCC1 (stereo not given) | > 50 µM (inactive)
33 | CS(=O)(=O)N1CCCN(c2nc3cc(Cl)ccc3n3cccc23)CC1 | > 50 µM (inactive)
34 | Cc1ccc(NC(=O)c2nnn(-c3ccccc3)n2)cc1F | > 50 µM (inactive)
35 | CS(=O)(=O)N1CCCc2cc(C(=O)Nc3ccc(Oc4ccccc4)cc3)ccc21 | > 50 µM (inactive)
36 | O=C(COc1cccc(-n2cnnn2)c1)Nc1ccc2c(c1)OCCO2 | > 50 µM (inactive)
37 | O=C(NCCc1ccco1)c1ccc(N2CCOc3ccccc32)s1 | 27.4 µM
38 | CCCC(=O)Nc1nc2ccc(CCC(=O)NCc3ccc(F)cc3)cc2s1 | 34.1 µM
39 | O=C(Nc1cccc(C(F)(F)F)c1)c1cc2c(s1)-c1ccccc1OC2 | 2.13 µM
40 | O=C1C=CC(O)C2C1CC13SSC4(CC5C(=O)C=CC(O)C5N4C1=O)C(=O)N23 (stereo not given) | 1 µM

Continued, values first:

Row | IC50 | Structure (SMILES)
41 | 2.32 µM | COc1ccc(NC(=O)Cn2cc(C(=O)c3ccc(C)cc3)c(=O)c3ccccc32)cc1
42 | > 50 µM (inactive) | Cn1c(C(=O)NCc2ccccn2)cc2c(=O)[nH]c3ccccc3c21
43 | 21.6 µM | O=C(CCCCn1c(=O)[nH]c2ccccc2c1=O)Nc1cccc(Cl)c1
44 | > 50 µM (inactive) | CCOc1ccccc1C(=O)Nc1ccc2c(c1)Sc1ncccc1C(=O)N2C
45 | > 50 µM (inactive) | Cc1cc(/C=C2/C(=N)N3C(c4ccccc4)=CSC3=NC2=O)c(C)n1-c1ccc(F)cc1
46 | 22.3 µM | COc1ccc(C2CC(=O)Nc3ccc4ccccc4c32)c(OC)c1OC (stereo not given)
47 | 46.4 µM | COc1ccc2[nH]cc(S(=O)(=O)c3ccc(C)c(F)c3)c(=O)c2c1
48 | < 0.05 µM | COc1cc(Cl)ccc1Nc1ncc(C(=O)Nc2cc(OC)c(OC)c(OC)c2)c2ccccc12
49 | 35.1 µM | Cc1ccc2c(c1)[C@]1(C(=O)N2)[C@@H](C(=O)c2ccccc2)[C@]2(C(=O)Nc3ccccc32)[C@@H]2CCCN21
50 | 36.4 µM | O=C(CN1C(=O)C2CCCC2=Nc2ccccc21)Nc1ccc(F)cc1F (stereo not given)
51 | 1.56 µM | O=C(Nc1ccc2c(c1)OCCO2)c1cccc2nc3ccccc3nc12
52 | 3.58 µM | O=C(NCc1ccc2c(c1)OCO2)c1cc2c(s1)-c1ccccc1OC2
53 | > 50 µM (inactive) | O=C(CC1C(=O)N(Cc2cccnc2)c2nc3ccccc3n21)Nc1cccc2ccccc12 (stereo not given)
54 | > 50 µM (inactive) | COc1ccc(CC(=O)Nc2cccc(-c3nc4ncccc4o3)c2)cc1OC
55 | > 50 µM (inactive) | CC1(C)CC(=O)C2=C(C1)Nc1ccccc1N(C(=O)C(F)(F)F)C2c1cccs1 (stereo not given)
56 | 10.7 µM | COc1ccc(C(=O)Nc2nc3n(n2)C(c2ccccc2)CC(=O)N3)cc1 (stereo not given)
57 | 2.44 µM | O=C(Nc1nc2c(ccc3ccccc32)s1)c1cccc(Br)c1
58 | > 50 µM (inactive) | O=C1CN(C(=O)COC(=O)CCCN2C(=O)c3cccc4cccc(c34)C2=O)c2ccccc2N1
59 | > 50 µM (inactive) | COc1ccc(OC)c(-c2cn3ccn(-c4ccc5c(c4)CCC5)c(=O)c3n2)c1
60 | 3.28 µM | CC1CCc2sc(NC(=O)c3ccccc3Oc3ccccc3)c(C(N)=O)c2C1 (stereo not given)
61 | 21.5 µM | COC(=O)c1sc2ccccc2c1NC(=O)c1ccc(Br)s1
62 | 2.08 µM | O=C(Nc1ccc2ccccc2n1)c1ccc(Cl)cc1
63 | > 50 µM (inactive) | Cc1ccc(NC(=O)c2nnn(-c3ccccc3Br)c2C)cc1C
64 | 0.732 µM | CCOc1ccc2c(c1)c(=O)c(C(=O)c1ccc(C)cc1)cn2CC(=O)Nc1ccc(OC)c(OC)c1
65 | 1.57 µM | CCOC(=O)c1ccc(NC(=O)Cn2c(=O)n(CC(=O)NCCc3ccc(OC)c(OC)c3)c(=O)c3sccc32)cc1
66 | > 50 µM (inactive) | COc1ccc(CCNC(=O)c2ccc3ccccc3c2)cc1OC
67 | 1.69 µM | COC(=O)c1ccc2c(=O)n(CCCCCC(=O)NCc3cccc(Cl)c3)c(=O)[nH]c2c1
68 | 1.61 µM | O=C(COc1ccc(Cl)cc1Cl)Nc1ccccc1-c1nc2ccccc2[nH]1
69 | > 50 µM (inactive) | O=C(NC(Cc1ccccc1)c1nc2ccccc2[nH]1)C1CC1 (stereo not given)
70 | 1.63 µM | CCC(C)c1ccc(-c2csc(Cn3c(CN4CCN(C)CC4)nc4ccccc4c3=O)n2)cc1 (stereo not given)
